Results as given in PubChem BioAssay (NCI).
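Results reflect a 48-hour exposure of cells in 96-well plates to compound at five concentrations. GI50: concentration for 50% inhibition of growth. TGI denotes the concentration required for complete inhibition of growth.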

Key:
Assay in all cases: NCI anticancer screen, dose series, 48 h
COLO 205 colon = system: COLO 205 colon
HCC-2998 colon = system: HCC-2998 colon
NCI-H460 lung = system: NCI-H460 lung
RXF 393 renal = system: RXF 393 renal
SK-MEL-2 melanoma = system: SK-MEL-2 melanoma
SK-MEL-28 melanoma = system: SK-MEL-28 melanoma
SN12C renal = system: SN12C renal
SW-620 colon = system: SW-620 colon
UACC-62 melanoma = system: UACC-62 melanoma
T-47D breast = system: T-47D breast

| SMILES | GI50 (COLO 205 colon) [µM] | TGI (COLO 205 colon) [µM] | GI50 (HCC-2998 colon) [µM] | TGI (HCC-2998 colon) [µM] | GI50 (NCI-H460 lung) [µM] | TGI (NCI-H460 lung) [µM] | GI50 (RXF 393 renal) [µM] | TGI (RXF 393 renal) [µM] | GI50 (SK-MEL-2 melanoma) [µM] | TGI (SK-MEL-2 melanoma) [µM] | GI50 (SK-MEL-28 melanoma) [µM] | TGI (SK-MEL-28 melanoma) [µM] | GI50 (SN12C renal) [µM] | TGI (SN12C renal) [µM] | GI50 (SW-620 colon) [µM] | TGI (SW-620 colon) [µM] | GI50 (UACC-62 melanoma) [µM] | TGI (UACC-62 melanoma) [µM] | GI50 (T-47D breast) [µM] | TGI (T-47D breast) [µM] |
| --- | --- | --- | --- | --- | --- | --- | --- | --- | --- | --- | --- | --- | --- | --- | --- | --- | --- | --- | --- | --- |
| O=C1Nc2c(C(F)(F)F)cccc2[C@@]1(c1ccc(O)cc1)c1ccc(OC(F)(F)F)cc1 | < 0.01 | < 0.01 | < 0.01 | 0.0131 | 4.19 | 19.7 | < 0.0107 | < 0.0232 | 0.0194 | 0.0515 | 13.3 | 27.7 | < 0.01 | < 0.011 | 14.1 | 28.6 | 0.0213 | 0.071 | – | – |
| Cc1cccc2c1N(C(=O)/C=C\C(=O)O)C(c1c(C)[nH]c3ccccc13)C2 (stereo not given) | – | > 10 | – | 33.9 | – | > 100 | – | – | – | 36 | – | 53.3 | – | > 100 | – | 79.3 | – | 41.8 | – | – |
| Cc1cc2c(cc1C)[n+](=O)c(C(=O)C/C(=N/OCCCc1ccccc1)C(=O)Nc1cc(Cl)ccc1Cl)c(C)n2[O-] | – | > 100 | – | > 100 | – | > 100 | – | > 100 | – | 86.2 | – | > 100 | – | > 100 | – | > 100 | – | > 100 | – | – |
| COC(=O)C(C(=O)C(=O)Nc1nc(=S)[nH][nH]1)c1csc(-n2nc(-c3ccccc3)cc2-c2ccccc2)n1 (stereo not given) | – | > 100 | – | > 100 | – | > 100 | – | > 100 | – | – | – | – | – | > 100 | – | > 100 | – | > 100 | – | – |
| CCCCCCCCN(CCCCCCCC)CCCCCCNc1cc(OC)cc2cccnc12 | – | – | 13.1 | 26.2 | 8.27 | 21.6 | 14.2 | 28.5 | 5.8 | 19.1 | 13.6 | 27.1 | 2.58 | 6.9 | 2.75 | 10.1 | 16.9 | 31.4 | 12.1 | 27.5 |
| NC(N)=N/N=C/c1c(-c2cc(Cl)sc2Cl)nc2sccn12 | – | – | 0.854 | 1.56 | 1.43 | 4.4 | 3.52 | 13.7 | 2.72 | > 50 | – | – | 0.642 | 1.41 | 1 | 2.43 | 0.752 | 1.46 | – | – |
| CC(=O)Nc1cc(N(CCOS(C)(=O)=O)CCOS(C)(=O)=O)ccc1N=O | – | > 100 | – | > 100 | – | > 100 | – | – | – | > 100 | – | > 100 | – | – | – | > 100 | – | > 100 | – | – |
| O=C(O)C[C@H]1CCCCC12CCOC2=O (stereo not given in full) | – | > 100 | – | > 100 | – | > 100 | – | > 100 | – | > 100 | – | > 100 | – | > 100 | – | > 100 | – | > 100 | – | – |
| Cc1ccc(NC(=O)C(=O)C(C#N)c2nc(-c3ccc(-c4ccccc4)cc3)cs2)c(C)c1 (stereo not given) | – | > 100 | – | > 100 | – | > 100 | – | > 100 | – | > 100 | – | > 100 | – | > 100 | – | > 100 | – | > 100 | – | – |
| O=C(c1ccccc1)[C@H]1Nc2ccc(Cl)cc2C2c3ccccc3CC21 (stereo not given in full) | – | > 100 | – | 83.4 | – | > 100 | – | 45.4 | – | > 100 | – | 97 | – | > 100 | – | > 100 | – | – | – | – |
| N#Cc1ccccc1NC(=O)C(=O)c1c(O)c2ccccc2oc1=O | – | – | – | > 100 | – | > 100 | – | > 100 | – | > 100 | – | > 100 | – | > 100 | – | > 100 | – | > 100 | – | > 100 |
| CC1COc2c(N3CCN(C)CC3)c(F)cc3c(=O)c(C(=O)O)cn1c23 (stereo not given) | > 100 | > 100 | – | – | > 100 | > 100 | > 100 | > 100 | > 100 | > 100 | > 100 | > 100 | > 100 | > 100 | > 100 | > 100 | > 100 | > 100 | – | – |
| O=C(c1ccccc1)N1C2CCC1C(C(F)(F)F)=C2C(F)(F)F | – | > 100 | – | > 100 | – | > 100 | – | > 100 | – | – | – | – | – | > 100 | – | > 100 | – | > 100 | – | – |
| CNCc1cc(OC)ccc1-c1ccc(OC)c(OC)c1OC | – | > 100 | – | > 100 | – | > 100 | – | > 100 | – | > 100 | – | > 100 | – | > 100 | – | > 100 | – | > 100 | – | – |
| CCN1C(=O)N(CC)C2Nn3c(s/c(=C\c4ccccc4Br)c3=O)=NC21 (stereo not given) | – | – | 2.4 | – | 0.804 | 10.5 | 1.09 | 6.91 | 3.55 | 25.6 | 2.23 | 69.6 | 3.17 | 27.8 | 1.27 | > 100 | 2.18 | 31.1 | 13.2 | > 100 |
| COC(=O)C(CC(C)C)NC(=O)NC12CC3CC(CC(F)(C3)C1)C2 (stereo not given) | – | > 100 | – | > 100 | – | > 100 | – | > 100 | – | > 100 | – | > 100 | – | – | – | > 100 | – | > 100 | – | – |
| CC(/C(=N\Nc1ccccc1)c1ccc(O)cc1)C1C(=O)Oc2ccccc21 (stereo not given) | – | > 100 | – | > 100 | – | > 100 | – | > 100 | – | > 100 | – | – | – | > 100 | – | > 100 | – | > 100 | – | – |
| COC(=O)/C(=N\Nc1nc(=S)[nH]n1N)C(C#N)c1ccccc1 (stereo not given) | – | > 100 | – | > 100 | – | > 100 | – | > 100 | – | > 100 | – | > 100 | – | > 100 | – | > 100 | – | > 100 | – | – |
| COC(=O)C(Cc1cc(OC)c(OC)c(OC)c1)c1ccc(OC)cc1 (stereo not given) | – | > 100 | – | – | – | > 100 | – | > 100 | – | – | – | > 100 | – | > 100 | – | > 100 | – | > 100 | – | – |
| O=[N+]([O-])c1ccc(Sc2ncnc3nc[nH]c23)c2nonc12 | 2.17 | 4.67 | 4.6 | 27.6 | 9.73 | 35.2 | – | – | 4.36 | 15.9 | 5.79 | 18.5 | 18.1 | 53.1 | 1.63 | 3.44 | 4.91 | 17.3 | 2.09 | > 100 |
